Test results: article PMC2010749, “Cytotoxic and clastogenic effects of soluble and insoluble compounds containing hexavalent and trivalent chromium” (British Journal of Cancer, 1981)
Like-named read-outs stand apart in the source and are kept apart here.

What was measured:
[1] = test system: BHK 21 Syrian hamster fibroblast line; test: Cell growth of BHK cultures (DNA + RNA content), Cr compounds added directly to medium; format: cell-based; conditions: 48 h in MEM; 0.5/0.15/0.05 mg/ml (one value for all three)
Method: (§1) Cell growth and labelling.-The reduction in cell growth, based on the nucleic acid content (DNA + RNA) of treated cultures, and the inhibition of DNA, RNA and protein syn- thesis, based on the incorporation of labelled precursors, were determined, to evaluate the cytotoxic effects of Cr compounds in BHK cell cultures. […] Three to four thousand cells were then examined for each dose level and each time interval, and the mitotic index (the ratio of all mitoses to the total number of cells) and the frequencies of each mitotic phase (the ratios of cells in each phase to total mitoses) were determined. […] Chromium compounds and cell treatments.- The tested compounds of Cr(VI) and Cr(III) and their physico-chemical properties are listed in Table I. In many experiments in which most of them were highly insoluble or only partially soluble (see Tables I, IV, V), Cr compounds were directly suspended in the growth medium used for treatments. In the experiments on the induction of chromosome aberrations and SCE in CHO cells, almost complete solubilization was obtained in N HCI for Cr(III) compounds and 0-5N NaOH for Cr(VI) compounds, after which they were diluted with MEM to the final concentrations specified in Table IX. […] The cytotoxic and clastogenic effects were usually deter- mined just at the end of Cr treatments, but sometimes the treated cells were washed with HBSS and incubated with normal growth medium, so that the effects of Cr were deter- mined at different times after the end of treatment (see Fig. 3 and Table VII).

[2] = test system: BHK 21 Syrian hamster fibroblast line; test: DNA, RNA and protein syntheses in BHK cells, Cr compounds added directly to medium; format: cell-based; conditions: 48 h in MEM; 0.5/0.15/0.05 mg/ml (one value for all three)
Method: (§2) Cell growth and labelling.-The reduction in cell growth, based on the nucleic acid content (DNA + RNA) of treated cultures, and the inhibition of DNA, RNA and protein syn- thesis, based on the incorporation of labelled precursors, were determined, to evaluate the cytotoxic effects of Cr compounds in BHK cell cultures. […] Three to four thousand cells were then examined for each dose level and each time interval, and the mitotic index (the ratio of all mitoses to the total number of cells) and the frequencies of each mitotic phase (the ratios of cells in each phase to total mitoses) were determined. […] Chromium compounds and cell treatments.- The tested compounds of Cr(VI) and Cr(III) and their physico-chemical properties are listed in Table I. In many experiments in which most of them were highly insoluble or only partially soluble (see Tables I, IV, V), Cr compounds were directly suspended in the growth medium used for treatments. […] The cytotoxic and clastogenic effects were usually deter- mined just at the end of Cr treatments, but sometimes the treated cells were washed with HBSS and incubated with normal growth medium, so that the effects of Cr were deter- mined at different times after the end of treatment (see Fig. 3 and Table VII).

[3] = test system: BHK 21 Syrian hamster fibroblast line; test: DNA, RNA and protein syntheses in BHK monolayers exposed to filtered medium preincubated with Cr compounds; format: cell-based; conditions: cells exposed 24 h;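 further: DNA, RNA and protein synthesis in BHK cultures assessed by incorporation of labelled precursors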
Method: as §2

[4] = test system: CHO Chinese hamster fibroblast line; test: Cell growth of CHO cultures (DNA + RNA content); format: cell-based; conditions: 32 h in MEM; 0.3 µg/ml
Method: as §2

[5] = test system: BHK 21 Syrian hamster fibroblast line; conditions: range in 4 experiments
Method: as §2

[6] = test system: HEp-2 human epithelial-like line; conditions: 2 h exposure to medium preincubated 2 days with 0.5 mg/ml in presence of BHK cells
Method: as §2

[7] = test system: CHO Chinese hamster fibroblast line; conditions: 0.1 µg/ml water-soluble Cr(VI) (0.3 µg/ml of salt)
Method: Cell growth and labelling.-The reduction in cell growth, based on the nucleic acid content (DNA + RNA) of treated cultures, and the inhibition of DNA, RNA and protein syn- thesis, based on the incorporation of labelled precursors, were determined, to evaluate the cytotoxic effects of Cr compounds in BHK cell cultures. […] Three to four thousand cells were then examined for each dose level and each time interval, and the mitotic index (the ratio of all mitoses to the total number of cells) and the frequencies of each mitotic phase (the ratios of cells in each phase to total mitoses) were determined. […] Chromium compounds and cell treatments.- The tested compounds of Cr(VI) and Cr(III) and their physico-chemical properties are listed in Table I. In many experiments in which most of them were highly insoluble or only partially soluble (see Tables I, IV, V), Cr compounds were directly suspended in the growth medium used for treatments. In the experiments on the induction of chromosome aberrations and SCE in CHO cells, almost complete solubilization was obtained in N HCI for Cr(III) compounds and 0-5N NaOH for Cr(VI) compounds, after which they were diluted with MEM to the final concentrations specified in Table IX. […]

[8] = Solubility of chromium compounds (Table I)
Method: as §1

[9] = preincubated 48 h with 0.05 mg/ml
[10] = preincubated 48 h with 0.15 mg/ml
[11] = preincubated 48 h with 0.5 mg/ml

Question: Which Cell growth [1] does the source give for `[K+].[K+].[O]=[Cr](=[O])([O-])[O][Cr](=[O])(=[O])[O-]` [Potassium dichromate] here?
Answer: 0 % of controls

Question: What about the DNA synthesis [2] of the same compound?
Answer: 0 % of controls

Question: And the Protein synthesis [2]?
Answer: 0 % of controls

Question: What about the RNA synthesis [2] of the same compound?
Answer: 0 % of controls

Question: What about the “DNA synthesis, preinc. in MEM” value [3, 9] of the same compound?
Answer: 24 % of controls

Question: And the “DNA synthesis, preinc. in MEM+BHK” value [3, 9]?
Answer: 35 % of controls

Question: And the “Protein synthesis, preinc. in MEM” value [3, 9]?
Answer: 100 % of controls

Question: What about the “Protein synthesis, preinc. in MEM+BHK” value [3, 9] of the same compound?
Answer: 100 % of controls

Question: What about the “RNA synthesis, preinc. in MEM” value [3, 9] of the same compound?
Answer: 90 % of controls

Question: What about the “RNA synthesis, preinc. in MEM+BHK” value [3, 9] of the same compound?
Answer: 100 % of controls

Question: And the “DNA synthesis, preinc. in MEM” value [3, 10]?
Answer: 4 % of controls

Question: And the “DNA synthesis, preinc. in MEM+BHK” value [3, 10]?
Answer: 16 % of controls

Question: What about the “Protein synthesis, preinc. in MEM” value [3, 10] of the same compound?
Answer: 68 % of controls

Question: What about the “Protein synthesis, preinc. in MEM+BHK” value [3, 10] of the same compound?
Answer: 100 % of controls

Question: And the “RNA synthesis, preinc. in MEM” value [3, 10]?
Answer: 42 % of controls

Question: What about the “RNA synthesis, preinc. in MEM+BHK” value [3, 10] of the same compound?
Answer: 64 % of controls

Question: And the “DNA synthesis, preinc. in MEM” value [3, 11]?
Answer: 4 % of controls

Question: What about the “DNA synthesis, preinc. in MEM+BHK” value [3, 11] of the same compound?
Answer: 7 % of controls

Question: What about the “Protein synthesis, preinc. in MEM” value [3, 11] of the same compound?
Answer: 52 % of controls

Question: And the “Protein synthesis, preinc. in MEM+BHK” value [3, 11]?
Answer: 69 % of controls

Question: And the “RNA synthesis, preinc. in MEM” value [3, 11]?
Answer: 39 % of controls

Question: What about the “RNA synthesis, preinc. in MEM+BHK” value [3, 11] of the same compound?
Answer: 49 % of controls

Question: And the Cell growth [4]?
Answer: 83 % control

Question: And the “Length of treatment giving 50% inhibition of RNA synthesis” value ([5]; K2Cr2O7 10 µg/ml in HBSS)?
Answer: 1 to 2 h

Question: What about the “Length of treatment giving 50% inhibition of protein synthesis” value ([5]; K2Cr2O7 10 µg/ml in HBSS) of the same compound?
Answer: 3 to 5 h

Question: What about the “Length of treatment giving > 90% inhibition of DNA synthesis” value ([5]; K2Cr2O7 10 µg/ml in HBSS) of the same compound?
Answer: 2 to 3 h

Question: What about the “Length of treatment giving > 90% inhibition of RNA synthesis” value ([5]; K2Cr2O7 10 µg/ml in HBSS) of the same compound?
Answer: 6 to 7 h

Question: And the “Length of treatment giving > 90% inhibition of protein synthesis” value ([5]; K2Cr2O7 10 µg/ml in HBSS)?
Answer: 8 to 10 h

Question: And the “Length of treatment giving 50% inhibition of DNA synthesis” value ([5]; K2Cr2O7 10 µg/ml in MEM)?
Answer: 0.5 to 1.0 h

Question: And the “Length of treatment giving 50% inhibition of RNA synthesis” value ([5]; K2Cr2O7 10 µg/ml in MEM)?
Answer: 2 to 4 h

Question: And the “Length of treatment giving 50% inhibition of protein synthesis” value ([5]; K2Cr2O7 10 µg/ml in MEM)?
Answer: 5 to 9 h

Question: What about the “Length of treatment giving > 90% inhibition of DNA synthesis” value ([5]; K2Cr2O7 10 µg/ml in MEM) of the same compound?
Answer: 2 to 3 h

Question: And the “Length of treatment giving > 90% inhibition of RNA synthesis” value ([5]; K2Cr2O7 10 µg/ml in MEM)?
Answer: > 10 h

Question: And the “Length of treatment giving > 90% inhibition of protein synthesis” value ([5]; K2Cr2O7 10 µg/ml in MEM)?
Answer: > 10 h

Question: What about the “Length of treatment giving 50% inhibition of DNA synthesis” value ([5]; K2Cr2O7 100 µg/ml in MEM) of the same compound?
Answer: 0 to 25 h

Question: And the “Length of treatment giving 50% inhibition of protein synthesis” value ([5]; K2Cr2O7 100 µg/ml in MEM)?
Answer: 1 to 3 h

Question: And the “Length of treatment giving > 90% inhibition of DNA synthesis” value ([5]; K2Cr2O7 100 µg/ml in MEM)?
Answer: 0 to 75 h

Question: What about the “Length of treatment giving > 90% inhibition of RNA synthesis” value ([5]; K2Cr2O7 100 µg/ml in MEM) of the same compound?
Answer: 5 to 7 h

Question: What about the “Length of treatment giving > 90% inhibition of protein synthesis” value ([5]; K2Cr2O7 100 µg/ml in MEM) of the same compound?
Answer: 6 to 10 h

Question: And the “Mitotic block (% increase of abnormal metaphases 2-4 h after treatment)” value [6]?
Answer: +++ (+ + + (> 100%))

Question: And the “Mitotic inhibition, early (% reduction of normal prophases at the end of treatment)” value [6]?
Answer: +++ (+ + + (> 70%))

Question: And the “Mitotic inhibition, late (% reduction of normal prophases 24 h after treatment)” value [6]?
Answer: +++ (+ + + (> 70%))

Question: What about the Caryological alterations ([6]; grades not defined) of the same compound?
Answer: ~+

Question: And the “Mean number of chromosome aberrations relative to control” value [7]?
Answer: 2-3 times the control values

Question: And the Solubility in water [8]?
Answer: High
